Where “and” joins values, the source holds several entries; their conditions need not be identical. Equal values may be shown once.
Experiment: Oil Stability Index (OSI) induction time, AOCS Official Method Cd 12b-92, at 98° C.
Settings: for OSI induction time (h) of formulations based on single antioxidants: 250 ppm of antioxidant formulation (20% active antioxidant in the carrier of Formulation 1), soybean oil, replicates 1-3; for OSI induction time of soybean oil stabilized with synthetic antioxidants: single antioxidants directly dissolved in soybean oil, 98° C., control 14.8 h
From the text: In order to evaluate the oxidative stability of an oil or fat sample an accelerated method is developed to speed up the oxidation process. […] This method is particularly suited to evaluate the effect of antioxidant stabilization of oils and fats.
Before oils and fats start to oxidize a resistance has to be overcome, after which the oxidation accelerates and becomes very rapid. The length of time before this rapid acceleration of oxidation is a measure of the resistance to oxidation and is commonly referred to as the ‘induction period’. In the Oil Stability Index (OSI method) the oxidative stability and the effect of antioxidant stabilization of oils and fats is determined. A stream of purified air is passed through a sample of oil, which is held in a thermostatic bath. In this experimental test the OSI was carried out at a temperature of 98° C. The effluent air from the oil or fat sample is then bubbled through a vessel containing deionized water. The conductivity of the water is continually monitored. The effluent air contains the volatile organic acids formed upon oxidizing the oil. The Oil Stability Index is defined as the point of maximum change of the rate of oxidation, or mathematically as the second derivative of the conductivity curve. As a consequence the induction point is a measure for the oxidative stability of the oil or fat system. The higher the induction point the higher the oxidative stability of the oil.

| Compound | OSI induction time of soybean oil stabilized with synthetic antioxidants (250 ppm) | OSI induction time of soybean oil stabilized with synthetic antioxidants (500 ppm) | OSI induction time of soybean oil stabilized with synthetic antioxidants (1000 ppm) | OSI induction time (h) of formulations based on single antioxidants |
| --- | --- | --- | --- | --- |
| COc1ccc(O)c(C(C)(C)C)c1 [BHA, butylated hydroxyanisole] | 14.0 h | 15.5 h | 21.5 h | 14.0 h and 14.2 h and 14.5 h |
| Cc1cc(C(C)(C)C)c(O)c(C(C)(C)C)c1 [BHT, butylated hydroxyltoluene] | 17.9 h | 20 h | – | 15.5 h and 15.4 h and 15.0 h |
| O=C(O)c1cc(O)c(O)c(O)c1 [Gallic acid, gallic acid] | 30.6 h | 41.8 h | 47.4 h | 21.6 h and 20.7 h and 22.0 h |

The next lines start with results.

| OSI induction time of soybean oil stabilized with synthetic antioxidants (250 ppm) | OSI induction time of soybean oil stabilized with synthetic antioxidants (500 ppm) | OSI induction time of soybean oil stabilized with synthetic antioxidants (1000 ppm) | Compound | OSI induction time (h) of formulations based on single antioxidants |
| --- | --- | --- | --- | --- |
| 29.6 h | 38.6 h | 47.6 h | CCCCCCCCOC(=O)c1cc(O)c(O)c(O)c1 [Octyl gallate, octyl gallate] | 19.3 h (2×) and 19.5 h |
| 35.8 h | 44.5 h | 53.1 h | CCCOC(=O)c1cc(O)c(O)c(O)c1 [Propyl gallate, propyl gallate] | 19.5 h and 21.5 h and 20.1 h |

Source: patent US9725675B2, “Lipid-soluble formulations containing mixtures of antioxidants” (KEMIN INDUSTRIES, INC., priority 2003, dated 2017)
